Experimental data from the NIST ThermoML archive (doi:10.1016/j.jct.2005.01.007).
Values joined by “and” are separate entries in the source; they are usually repeats but may differ in a detail not shown here. Identical values can stand only once.

What was measured:
[1] = 101 kPa, Liquid
[2] = refractive index (Na D-line) (dimensionless); settings: 298.15 K; 101.33 kPa; Liquid; Standard Abbe refractometry
[3] = xn = mol fraction of the nth substance listed; settings: 101 kPa, Liquid

c1ccccc1 [benzene]
[1]
Settings	mass density [kg/m3]
298.15 K	873.62
328.15 K	841.52

Settings	refractive index
[2]	1.4979

c1ccccc1 [benzene] + CCC(=O)c1ccccc1
[3], x1 = 1
Settings	mass density [kg/m3]
298.15 K	873.62
328.15 K	841.52

CCCCc1ccccc1 [butylbenzene]
[1]
Settings	mass density [kg/m3]
298.15 K	856.23
328.15 K	832.29

Settings	refractive index
[2]	1.4874

CCCCc1ccccc1 [butylbenzene] + CCC(=O)c1ccccc1
[3], x1 = 1
Settings	mass density [kg/m3]
298.15 K	856.23
328.15 K	832.29

CCC(=O)c1ccccc1 [ethyl phenyl ketone]
[1]
Settings	mass density
298.15 K	1005.24 kg/m3 and 1005.26 kg/m3 and 1005.29 kg/m3
328.15 K	979.5 kg/m3 [middle of 4 runs]

Settings	refractive index
[2]	1.5245

CCC(=O)c1ccccc1 [ethyl phenyl ketone] + CCCCc1ccccc1
mass density [kg/m3], [3]
Settings	298.15 K	328.15 K
x2 = 0	1005.29	979.54
x2 = 0.0906	989.98	964.4
x2 = 0.1842	974.56	949.13
x2 = 0.2739	960.14	934.89
x2 = 0.3688	945.31	920.21
x2 = 0.4531	932.45	907.51
x2 = 0.5519	917.76	893
x2 = 0.6164	908.4	883.77
x2 = 0.711	894.97	870.51
x2 = 0.8053	881.97	857.68
x2 = 0.9044	868.69	844.57

CCC(=O)c1ccccc1 [ethyl phenyl ketone] + CCc1ccccc1
mass density [kg/m3], [3]
Settings	298.15 K	328.15 K
x2 = 0	1005.29	979.5
x2 = 0.1025	992.18	966.3
x2 = 0.1878	981.02	955.11
x2 = 0.2741	969.49	943.55
x2 = 0.3668	956.85	930.84
x2 = 0.4491	945.37	919.32
x2 = 0.5504	930.94	904.84
x2 = 0.6359	918.44	892.32
x2 = 0.7246	905.22	879.02
x2 = 0.831	888.99	862.68
x2 = 0.9093	876.76	850.4

CCC(=O)c1ccccc1 [ethyl phenyl ketone] + Cc1ccccc1
mass density [kg/m3], [3]
Settings	298.15 K	328.15 K
x2 = 0	1005.26	979.48
x2 = 0.09253	995.05	969.14
x2 = 0.1872	984.09	958.07
x2 = 0.2777	973.13	946.96
x2 = 0.3634	962.24	935.91
x2 = 0.4547	950.09	923.57
x2 = 0.5572	935.66	908.94
x2 = 0.6402	923.36	896.42
x2 = 0.7203	910.9	883.78
x2 = 0.8278	893.2	865.77
x2 = 0.9099	878.86	851.18

CCC(=O)c1ccccc1 [ethyl phenyl ketone] + c1ccccc1
mass density [kg/m3], [3]
Settings	298.15 K	328.15 K
x2 = 0	1005.24	979.46
x2 = 0.1079	995.49	969.44
x2 = 0.1982	986.83	960.49
x2 = 0.2725	979.24	952.7
x2 = 0.3691	968.74	941.82
x2 = 0.4557	958.59	931.35
x2 = 0.5205	950.57	922.98
x2 = 0.6278	936.19	907.95
x2 = 0.7441	919.01	889.82
x2 = 0.8198	906.77	876.8
x2 = 0.8966	893.38	862.6

CCc1ccccc1 [ethylbenzene]
[1]
Settings	mass density [kg/m3]
298.15 K	862.26
328.15 K	835.86

Settings	refractive index
[2]	1.4931

CCc1ccccc1 [ethylbenzene] + CCC(=O)c1ccccc1
[3], x1 = 1
Settings	mass density [kg/m3]
298.15 K	862.26
328.15 K	835.86

Cc1ccccc1 [toluene]
[1]
Settings	mass density [kg/m3]
298.15 K	862.25
328.15 K	834.25

Settings	refractive index
[2]	1.4941

Cc1ccccc1 [toluene] + CCC(=O)c1ccccc1
[3], x1 = 1
Settings	mass density [kg/m3]
298.15 K	862.25
328.15 K	834.25
